Like-named read-outs stand apart in the source and are kept apart here.
Legend:
[1] = molecular target: T1, human TRPV4 (hTRPV4/CHO cells) (Homo sapiens, UniProt Q9HBA0); assay: Test Example 4: TRPV4 inhibitory activity (Ki value), 4α-PDD stimulation, Fluo-3 calcium fluorescence (FDSS 3000); type: cell-based; details: Test Example 4, 4α-PDD stimulation, read-out: Test 4 Ki
T1 construct: expressed in transfected cells; host or cells: CHO-K1
Protocol: TRPV4 Inhibitory Activity (Ki Value)
For each compound, TRPV4 inhibitory activity was measured using cells.
(Method) The procedures of evaluating TRPV4 inhibitory activity of a compound are as follows.
(1) TRPV4 inhibitory activity was measured using CHO-K1 cells stably expressing human TRPV4 (hTRPV4/CHO cells).
(2) Cells were subcultured using the MEM-α medium (SIGMA M4526: 500 ml), FBS (HyCloneSH30070.03: 10%), L-Glutamine 200 mmol/L (GIBCO: 4 mmol/L), P/S (nacalai tesque: 1%), G418 (nacalai tesque: 1 mg/mL).
(3) The 96-well plates which hTRPV4/CHO cells were seeded at densities of 2×10^4 cells/well in the culture medium in the day before the experimental day, and cultured in a CO2 incubator in the presence of 5% CO2 at 37° C. for 24 hours was used as assay plates.
(4) Cells were washed with assay buffer (Hank's Balanced Salt Solution 9.8 g, 1 mol/L HEPES (pH7.5), 250 mmol/L probenecid).
(5) Fluo-3, fluorescent dye for Ca influx assay was added to each well, then the assay plate was incubated in a CO2 incubator in the presence of 5% CO2 at 37° C. for one hour (final conc.; 5 μmol/L Fluo-3).
(6) The assay plate was washed with the assay buffer, and the buffer was remained at 30 μL/well. Then the assay plate was incubated for 10 min at 37° C.
(7) 20 μL of diluted compound solution was added to each well of assay plate, and mixed with built-in Pipette and Mixer of the fluorescence analysis system FDSS 3000 (Hamamatsu Photonics).
(8) 50 μL of 4α-PDD solution (concluding 0.1% Pluronic F-127) was applied to each well of assay plate and mixed.
(9) The fluorescent intensity was measured by FDSS 3000 for 8 min from the point of time addition the compound solution, at Ex 480 nm, Em 540 nm wavelength.
TRPV4 inhibitory activity (Ki value) of a compound was calculated according to the following procedure.
(10) In the presence of the compound, the difference between maximal and minimal of fluorescent intensity value for 8 min from just before addition of 4α-PDD solution was calculated, and it was referred as Max-Min value. Max-Min value of the Ruthenium Red at 10 μM was defined as 100% inhibitory activity, Max-Min value in the absence of the compound was defined as 0% inhibitory activity. TRPV4 inhibitory activity of the compound was calculated by the following formula.
(1−(Max−Min value of the compound−100% inhibitory activity)/(0% inhibitory activity−100% inhibitory activity))×100
(11) By the following formula, inhibitory activity was calculated at 10 points with three fold serial dilution, in the final concentration of the compound from 10 μmol/L to 0.5 nmol/L. The IC50 value was calculated by dose-response curve.
100−[(fluorescent intensity in the presence of the compound−fluorescent intensity of back ground)/(total fluorescent intensity−fluorescent intensity of back ground)]×100
(12) In the presence of the compound, activity of 4α-PDD was measured at 9 points with three fold serial dilution from 20 μmol/L. Activity of 4α-PDD was calculated by the following formula.
(Max−Min value of the each 4α-PDD concentration−0% activity)/(100% activity−0% activity))×100
(13) Effective activity was calculated in 4α-PDD the above. The EC50 value was calculated by dose-response curve.
(14) The Ki value of a compound was calculated by the following formula.
Ki=IC50 value/1+([A]/EC50)
[A]: Concentration of agonist (nmol/L)

[2] = molecular target: T1, human TRPV4 (hTRPV4/CHO cells); assay: Test Example 1: TRPV4 inhibitory activity (IC50 value), 4α-PDD stimulation, Fluo4 calcium fluorescence (FLIPR TETRA); type: cell-based
[3] = Test Example 1, 4α-PDD stimulation, read-out: Test 1 IC50

T1 sequence (Q9HBA0 whole entry): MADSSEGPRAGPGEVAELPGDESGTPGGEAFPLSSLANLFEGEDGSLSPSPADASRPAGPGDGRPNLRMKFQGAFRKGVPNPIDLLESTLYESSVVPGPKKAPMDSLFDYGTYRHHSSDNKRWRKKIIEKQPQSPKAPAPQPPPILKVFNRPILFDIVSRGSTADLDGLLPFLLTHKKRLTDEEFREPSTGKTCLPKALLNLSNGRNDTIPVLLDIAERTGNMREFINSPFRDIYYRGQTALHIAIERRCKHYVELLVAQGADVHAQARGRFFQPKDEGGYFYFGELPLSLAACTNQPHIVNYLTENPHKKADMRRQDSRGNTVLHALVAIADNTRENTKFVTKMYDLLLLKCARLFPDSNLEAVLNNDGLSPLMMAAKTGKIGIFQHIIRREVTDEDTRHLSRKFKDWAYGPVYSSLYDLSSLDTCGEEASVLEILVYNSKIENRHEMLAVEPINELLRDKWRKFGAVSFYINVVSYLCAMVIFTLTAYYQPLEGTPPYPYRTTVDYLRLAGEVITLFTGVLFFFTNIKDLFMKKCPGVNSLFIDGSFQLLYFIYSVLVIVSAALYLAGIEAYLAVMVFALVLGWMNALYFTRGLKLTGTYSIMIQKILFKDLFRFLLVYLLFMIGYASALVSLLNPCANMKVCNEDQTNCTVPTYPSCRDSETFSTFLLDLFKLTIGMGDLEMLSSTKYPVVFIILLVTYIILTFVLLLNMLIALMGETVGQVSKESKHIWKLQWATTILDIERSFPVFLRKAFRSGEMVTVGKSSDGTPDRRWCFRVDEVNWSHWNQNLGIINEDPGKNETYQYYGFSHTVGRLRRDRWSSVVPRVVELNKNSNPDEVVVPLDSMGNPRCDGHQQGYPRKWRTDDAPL

Compound | IC50 [2, 3] [nM] | further results
Cc1nc(C)c(-c2csc(NC(=O)C3CCC(=O)C3)n2)s1 (racemic) [Compound I-37] |  | Ki [1]: 1000 to 3000 nM
Cc1nc(C)c(-c2csc(NC(=O)C3CCC(NCC(F)(F)F)C3)n2)s1 (racemic) [Compound I-39] |  | Ki [1]: 100 to 1000 nM
Cc1nc(C)c(-c2csc(NC(=O)[C@H]3CC[C@H](Cl)C3)n2)s1 (racemic) [Compound I-55] |  | Ki [1]: < 100 nM
Cc1nc(C)c(-c2csc(NC(=O)[C@H]3CC[C@H](C#N)C3)n2)s1 (racemic) [Compound I-56] |  | Ki [1]: 100 to 1000 nM
Cc1nc(C)c(-c2csc(NC(=O)[C@H]3CC[C@H](S(=O)(=O)CC(F)(F)F)C3)n2)s1 (racemic) [Compound I-57] |  | Ki [1]: 100 to 1000 nM
Cc1nc(C)c(-c2csc(NC(=O)[C@H]3CC[C@H](SCC(F)(F)F)C3)n2)s1 (racemic) [Compound I-536] |  | Ki [1]: < 100 nM
Cc1nc(C)c(-c2csc(NC(=O)C(C)(C)c3ccccc3)n2)s1 [Compound I-1] |  | Ki [1]: 100 to 1000 nM
COC(C(=O)Nc1nc(-c2sc(C)nc2C)cs1)c1ccccc1 (stereo not shown) [Compound I-5] |  | Ki [1]: 100 to 1000 nM
Cc1nc(C)c(-c2csc(NC(=O)C3CCCO3)n2)s1 (stereo not shown) [Compound I-6] |  | Ki [1]: 1000 to 3000 nM
Cc1nc(C)c(-c2csc(NC(=O)Cc3ccccn3)n2)s1 [Compound I-7] |  | Ki [1]: 100 to 1000 nM
Cc1nc(C)c(-c2csc(NC(=O)C(F)c3ccccc3)n2)s1 (stereo not shown) [Compound I-8] |  | Ki [1]: 100 to 1000 nM
Cc1nc(C)c(-c2csc(NC(=O)CC(C)(C)C)n2)s1 [Compound I-9] |  | Ki [1]: 100 to 1000 nM
Cc1nc(C)c(-c2csc(NC(=O)c3ccc(F)c(Cl)c3)n2)s1 [Compound I-10] |  | Ki [1]: 100 to 1000 nM
Cc1nc(C)c(-c2csc(NC(=O)C(C)(C)Oc3ccc(Cl)cc3)n2)s1 [Compound I-11] |  | Ki [1]: 100 to 1000 nM
Cc1nc(C)c(-c2csc(NC(=O)C(C)Oc3ccc(Cl)cc3)n2)s1 (stereo not shown) [Compound I-12] |  | Ki [1]: 100 to 1000 nM
O=C(Cc1ccc(C(F)(F)F)cc1)Nc1nc(-c2sc(Cl)nc2Cl)cs1 [Compound I-15] |  | Ki [1]: 100 to 1000 nM
O=C(Cc1ccc(Br)cc1)Nc1nc(-c2cnc(Cl)s2)cs1 [Compound I-16] |  | Ki [1]: 100 to 1000 nM
Cc1nc(C)c(-c2csc(NC(=O)Cc3cc(N)cc(C(=O)N[C@H](c4ccccc4)C(F)(F)F)c3)n2)s1 [Compound I-518] | < 100 | 
Cc1nc(C)c(-c2csc(NC(=O)Cc3cc(C(=O)N[C@H](c4ccccc4)C(F)(F)F)cc(-c4nnn[nH]4)c3)n2)s1 [Compound I-520] | 1000 to 8000 | 
Cc1nc(C)c(-c2csc(NC(=O)Cc3cc(OCC(F)(F)F)cc(C(=O)N[C@H](c4ccccc4)C(F)(F)F)c3)n2)s1 [Compound I-521] | < 100 | IC50 ([2]; 1 μmol/L 4α-PDD, Fluo4-AM, read-out: TRPV4 inhibitory activity (IC50 value)): 1.6 nM
Cc1nc(C)c(-c2csc(NC(=O)Cc3cc(OCC4CC4)cc(C(=O)N[C@H](c4ccccc4)C(F)(F)F)c3)n2)s1 [Compound I-522] | < 100 | 
Cc1nc([C@H](C)O)sc1-c1csc(NC(=O)Cc2cc(Br)cc(C(=O)Nc3ccc(C(F)(F)F)cc3)c2)n1 [Compound I-523] | < 100 | 

Compound | IC50 [2, 3] [nM] | further results
Cc1nc([C@H](C)O)sc1-c1csc(NC(=O)Cc2cc(Br)cc(C(=O)N[C@H](c3ccccc3)C(F)(F)F)c2)n1 [Compound I-524] | < 100 | 
COc1cc(CC(=O)Nc2nc(-c3sc(C)nc3C)cs2)cc(C(=O)Nc2ccc(C(F)(F)F)cc2)c1 [Compound I-525] | < 100 | 
COc1cc(CC(=O)Nc2nc(-c3sc(C)nc3C)cs2)cc(C(=O)Nc2ccc(Cl)cc2F)c1 [Compound I-526] | < 100 | 
COc1cc(CC(=O)Nc2nc(-c3sc(C)nc3C)cs2)cc(C(=O)NC(C)(C)C(F)(F)F)c1 [Compound I-528] | < 100 | 
Cc1nc(C)c(-c2csc(NC(=O)C3CN(c4cnc(C(F)(F)F)cn4)C3)n2)s1 [Compound I-534] | < 100 | 
Cc1nc(C)c(-c2nc(NC(=O)Cc3c(F)cccc3F)sc2C2=CCCCC2)s1 [Compound I-537] | 1000 to 8000 | 
Cc1nc(C)c(-c2nc(NC(=O)Cc3c(F)cccc3F)sc2-c2ccsc2)s1 [Compound I-538] | 1000 to 8000 | 
CCOC(=O)c1nc(C)sc1-c1csc(NC(=O)Cc2c(F)cccc2F)n1 [Compound I-539] | < 100 | 
Cc1ncsc1-c1csc(NC(=O)Cc2c(F)cccc2F)n1 [Compound I-540] | 100 to 1000 | 
Cc1nc(C)c(-c2csc(NC(=O)Cc3ccccc3[N+](=O)[O-])n2)s1 [Compound I-541] | < 100 | 
Cc1nc(C(F)F)sc1-c1csc(NC(=O)Cc2ccc(N(C)C)cc2)n1 [Compound I-542] | 100 to 1000 | 
Cc1nc(C(F)F)sc1-c1csc(NC(=O)C2CCC(C(F)(F)F)CC2)n1 (stereo not shown) [Compound I-543] | 100 to 1000 | 
Cc1nc(C)c(-c2nsc(NC(=O)Cc3ccc(C(O)C(F)(F)F)cc3)n2)s1 (stereo not shown) [Compound I-544] | 1000 to 8000 | 
C=C(C)c1nc(C)sc1-c1csc(NC(=O)Cc2c(F)cccc2F)n1 [Compound I-545] | 100 to 1000 | 
O=C(Nc1nc(-c2sc(CO)nc2CO)cs1)C1CC(c2ccccc2)C1 (stereo not shown) [Compound I-546] | 100 to 1000 | 
Cc1nc(CO)sc1-c1csc(NC(=O)C2CC(c3ccccc3)C2)n1 (stereo not shown) [Compound I-547] | < 100 | 
O=C(Nc1nc(-c2sc(CO)nc2CO)cs1)[C@H]1C[C@H](OCc2ccccc2)C1 [Compound I-548] | 100 to 1000 | 
O=C(Nc1nc(-c2sc(CO)nc2CO)cs1)[C@H]1C[C@@H](OCc2ccccc2)C1 [Compound I-549] | 1000 to 8000 | 
O=C(Nc1nc(-c2sc(CO)nc2CO)cs1)[C@H]1C[C@@H](OCc2ccc(C(F)(F)F)cc2)C1 [Compound I-550] | 100 to 1000 | 
NC(=O)c1nc(CO)c(-c2csc(NC(=O)[C@H]3C[C@@H](OCc4ccc(C(F)(F)F)cc4)C3)n2)s1 [Compound I-551] | 100 to 1000 | 
Cc1nc(CO)sc1-c1csc(NC(=O)[C@H]2C[C@H](C(F)F)C2)n1 [Compound I-552] | 100 to 1000 | 

More lines, main results first:

IC50 [2, 3] [nM] | Compound | further results
1000 to 8000 | Cc1nc(C)c(-c2csc(C(=O)NCc3cccc(F)c3)n2)s1 [II-2] | 
100 to 1000 | Cc1nc(CO)c(-c2csc(NCCc3c(F)cccc3F)n2)s1 [II-3] | 
1000 to 8000 | Cc1nc(C)c(-c2csc(CCOc3ccc(Br)cc3)n2)s1 [II-4] | 
100 to 1000 | Cc1ccc(-c2csc(NC(=O)C3CC(F)C3)n2)s1 (stereo not shown) [II-5] | 
100 to 1000 | O=C(Cc1ccc(S(=O)(=O)CC(F)(F)F)cc1)Nc1nc(-c2cccs2)cs1 [II-6] | 
1000 to 8000 | O=C(Nc1nc(-c2cccs2)cs1)C1CC(F)C1 (stereo not shown) [II-7] | 
100 to 1000 | Cc1ccc(-c2csc(NC(=O)Cc3ccc(S(=O)(=O)CC(F)(F)F)cc3)n2)s1 [II-8] | 
1000 to 8000 | Cc1nc(C)c(-c2csc(NC(=N)Cc3ccc(Cl)cc3)n2)s1 [II-31] | 
< 100 | Cc1nc(CO)sc1-c1csc(Nc2ccccn2)n1 [II-32] | 
1000 to 8000 | Cc1nc(C)c(-c2csc(NCC(F)(F)c3ccccc3)n2)s1 [II-33] | 
< 100 | Cc1nc(C)c(-c2csc(Nc3cnccn3)n2)s1 [II-34] | 
< 100 | Cc1nc(C)c(-c2csc(NCCc3ccccc3)n2)s1 [II-35] | 
< 100 | Cc1nc(C)c(-c2csc(NCCc3ccc(Cl)cc3)n2)s1 [II-36] | 
< 100 | Cc1nc(C)c(-c2csc(NC3CCCCC3)n2)s1 [II-37] | 
< 100 | Cc1nc(C)c(-c2csc(NC3CCCC3)n2)s1 [II-38] | 
100 to 1000 | Cc1nc(C)c(-c2csc(Nc3cccnc3)n2)s1 [II-40] | 
1000 to 8000 | Cc1nc(C)c(-c2csc(Nc3ccncc3)n2)s1 [II-41] | 
100 to 1000 | Cc1nc(C)c(-c2csc(NCCOc3ccccc3)n2)s1 [II-47] | 
< 100 | Cc1nc(C)c(-c2csc(NCC3Cc4ccccc4C3)n2)s1 [II-49] | 
1000 to 8000 | Cc1nc(C)c(-c2csc(CCOCc3ccc(Br)cc3)n2)s1 [II-51] | 

From patent publication US20170066759A1, “AROMATIC 5-MEMBERED HETEROCYCLIC DERIVATIVE HAVING TRPV4-INHIBITING ACTIVITY” (Shionogi & Co., Ltd., priority 2012, published 2017)
